Results reported in patent publication US9533983B2, “Antiplatelet agent” (Mitsubishi Tanabe Pharma Corporation, priority 2009, dated 2017).

Assays:
Format in all cases: cell-based
Details in all cases: Cavia porcellus, guinea pig PRP
[1] = test system: ADP-Induced Platelet Aggregation; test: Platelet aggregation inhibitory activity: ADP-induced platelet aggregation in platelet rich plasma
Procedure: A blood of a guinea pig was sampled by using a 1/10 volume of a 3.8% sodium citrate as a platelet aggregation inhibitor, and a platelet rich plasma (PRP) was separated by centrifuging the blood sample at 1100 rpm for 10 min. After fractionating the PRP in the upper layer, the lower layer was centrifuged at 3000 rpm for 10 min to fractionate the platelet poor plasma (PPP). To 100 μL of PRP, a 1 μL solution of each compound was added, and after still standing at 37° C. for 1 min, the mixture was stirred at 37° C. for 1 min by a stirrer. Then, 11 μL of collagen, ristocetin, or ADP was added thereto to induce the platelet aggregation. The platelet aggregation ability was measured by using the mCM hematolaser 313M (L-M-S Inc.). Based on the assumption that a light transmittance of PPP corresponds to a 100% coagulation value, an aggregation rate at each concentration of the compound was determined, then, an IC50 value was calculated therefrom.
[Platelet Aggregation Inhibitory Activities: ADP-Induced Platelet Aggregation]

[2] = test system: Ristocetin-Induced Platelet Aggregation; test: Platelet aggregation inhibitory activity: ristocetin-induced platelet aggregation in platelet rich plasma
Procedure, shortened: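 Guinea pig citrated platelet-rich plasma preincubated with compound at 37 °C for 1 min, stirred 1 min, then aggregation induced with ristocetin. Light transmittance measured with PPP set as 100%. IC50 derived from aggregation rates across compound concentrations.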

[3] = test system: Collagen-Induced Platelet Aggregation; test: Platelet aggregation inhibitory activity: collagen-induced platelet aggregation in platelet rich plasma
Procedure, shortened: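 Guinea-pig citrated platelet-rich plasma incubated with compound 1 min at 37° C, stirred 1 min, then aggregation induced with collagen and measured by light transmittance, platelet-poor plasma set as 100%. Aggregation rates at each concentration gave the IC50.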

Row | SMILES | IC50 [1] [nM] | IC50 [2] [nM] | IC50 [3] [nM]
1 | COc1ccc(-n2c(-c3ccc(Cl)cn3)nc3cc(C(F)(F)F)ccc32)cn1 [Example 36, 2-(5-chloropyridin-2-yl)-1-(6-methoxypyridin-3-yl)-5-(trifluoromethyl)-1H-benzimidazole] | > 10000 | 180 | 49
2 | COc1cnc(-n2c(-c3cn(C)cn3)nc3cc(C(F)(F)F)cnc32)cn1 [Example 169, 3-(5-methoxypyrazine-2-yl)-2-(1-methyl-1H-imidazol-4-yl)-6-(trifluoromethyl)-3H-imidazo[4,5-b]pyridine] | > 10000 | 148 | 123
3 | COc1ccc(-n2c(-c3ccc(F)cn3)nc3cc(C(F)(F)F)ccc32)nn1 [Example 62, 2-(5-fluoropyridin-2-yl)-1-(6-methoxypyridazin-3-yl)-5-(trifluoromethyl)-1H-benzimidazole] | > 10000 | 27 | 17
4 | COc1ccc(-n2c(-c3ccn(C)n3)nc3cc(C(F)(F)F)ccc32)nn1 [Example 52, 1-(6-methoxypyridazin-3-yl)-2-(1-methyl-1H-pyrazol-3-yl)-5-(trifluoromethyl)-1H-benzimidazole] | > 10000 | 41 | 54
5 | COc1ccc(-n2c(-c3ccc(F)cn3)nc3cc(C(F)(F)F)cnc32)cn1 [Example 4, 2-(5-fluoropyridin-2-yl)-3-(6-methoxypyridin-3-yl)-6-(trifluoromethyl)-3H-imidazo[4,5-b]pyridine] | > 10000 | 24 | 21
6 | COc1ccc(-n2c(-c3ccccn3)nc3cc(C(F)(F)F)ccc32)nn1 [Example 1, 1-(6-methoxypyridazin-3-yl)-2-pyridin-2-yl-5-(trifluoromethyl)-1H-benzimidazole] | > 10000 | 100 | 33
7 | COc1ccc(-c2c3ncc(C(F)(F)F)cc3nn2-c2ccccn2)cn1 [Example 186, 3-(6-methoxypyridin-3-yl)-2-pyridin-2-yl-6-(trifluoromethyl)-2H-pyrazolo[4,3-b]pyridine] | > 10000 | 9 | 16
8 | COc1ccc(-c2c(-c3ccccn3)nn3cc(C(F)(F)F)cnc23)cn1 [Example 180, 3-(6-methoxypyridin-3-yl)-2-pyridin-2-yl-6-(trifluoromethyl)pyrazolo[1,5-a]pyrimidine] | > 10000 | 14 | 55
9 | COc1ccc(-c2c(-c3ccc(F)cn3)nn3cc(C(F)(F)F)cnc23)cn1 [Example 192, 2-(5-fluoropyridin-2-yl)-3-(6-methoxypyridin-3-yl)-6-(trifluoromethyl)pyrazolo[1,5-a]pyrimidine] | > 10000 | 27 | 60
10 | COc1ccc(-n2c(-c3ccc(C#N)cn3)nc3cc(C(F)(F)F)ccc32)nn1 [Example 7, 6-[1-(6-methoxypyridazin-3-yl)-5-(trifluoromethyl)-1H-benzimidazole-2-yl]nicotinonitrile] | > 10000 | 60 | 25
11 | COc1ccc(-n2c(-c3ccccn3)nc3cc(C(F)(F)F)cnc32)cn1 [Example 13, 3-(6-methoxypyridin-3-yl)-2-pyridin-2-yl-6-(trifluoromethyl)-3H-imidazo[4,5-b]pyridine] | > 10000 | 41 | 42
12 | COc1ccc(-c2c(-c3ccccn3)nc3cc(C(F)(F)F)cnn23)cn1 [Example 179, 3-(6-methoxypyridin-3-yl)-2-pyridin-2-yl-7-(trifluoromethyl)imidazo[1,2-b]pyridazine] | > 10000 | 34 | 75
13 | COc1ccc(-n2c(-c3ccc(F)cn3)nc3cc(OC(F)(F)F)ccc32)nn1 [Example 71, 2-(5-fluoropyridin-2-yl)-1-(6-methoxypyridazin-3-yl)-5-(trifluoromethoxy)-1H-benzimidazole] | > 10000 | 43 | 78
14 | COc1ccc(-n2c(-c3ccc(F)cn3)nc3cc(OC(F)(F)F)cnc32)cn1 [Example 177, 2-(5-fluoropyridin-2-yl)-3-(6-methoxypyridin-3-yl)-6-(trifluoromethoxy)-3H-imidazo[4,5-b]pyridine] | > 10000 | 11 | 21
15 | COc1ccc(-n2c(-c3ccccn3)cc3cc(C(F)(F)F)cnc32)cn1 [Example 183, 1-(6-methoxypyridin-3-yl)-2-pyridin-2-yl-5-(trifluoromethyl)-1H-pyrrolo[2,3-b]pyridine] | > 10000 | 9 | 24
16 | COc1ccc(-n2c(-c3cn(C)nn3)nc3cc(C(F)(F)F)cnc32)cn1 [Example 160, 3-(6-methoxypyridin-3-yl)-2-(1-methyl-1H-1,2,3-triazol-4-yl)-6-(trifluoromethyl)-3H-imidazo[4,5-b]pyridine] | > 10000 | 163 | 163
17 | COc1ccc(-n2c(-c3ccc(F)cn3)nc3cc(OC(F)F)cnc32)cn1 [Example 178] | > 10000 | 47 | 94
18 | COc1ccc(-c2c(-c3ccc(F)cn3)nc3cc(C(F)(F)F)cnn23)cn1 [Example 181, 2-(5-fluoropyridin-2-yl)-3-(6-methoxypyridin-3-yl)-7-(trifluoromethyl)imidazo[1,2-b]pyridazine] | > 10000 | 27 | 33
19 | COc1ccc(-n2c(-c3ccccn3)nc3cc(OC(F)(F)F)ccc32)cn1 [Example 40, 1-(6-methoxypyridin-3-yl)-2-pyridin-2-yl-5-(trifluoromethoxy)-1H-benzimidazole] | > 10000 | 170 | 330
